Target: T1, NHE3 (Homo sapiens, UniProt P48764)
T1 construct: expressed in transfected cells
T1 sequence (P48764 26-834): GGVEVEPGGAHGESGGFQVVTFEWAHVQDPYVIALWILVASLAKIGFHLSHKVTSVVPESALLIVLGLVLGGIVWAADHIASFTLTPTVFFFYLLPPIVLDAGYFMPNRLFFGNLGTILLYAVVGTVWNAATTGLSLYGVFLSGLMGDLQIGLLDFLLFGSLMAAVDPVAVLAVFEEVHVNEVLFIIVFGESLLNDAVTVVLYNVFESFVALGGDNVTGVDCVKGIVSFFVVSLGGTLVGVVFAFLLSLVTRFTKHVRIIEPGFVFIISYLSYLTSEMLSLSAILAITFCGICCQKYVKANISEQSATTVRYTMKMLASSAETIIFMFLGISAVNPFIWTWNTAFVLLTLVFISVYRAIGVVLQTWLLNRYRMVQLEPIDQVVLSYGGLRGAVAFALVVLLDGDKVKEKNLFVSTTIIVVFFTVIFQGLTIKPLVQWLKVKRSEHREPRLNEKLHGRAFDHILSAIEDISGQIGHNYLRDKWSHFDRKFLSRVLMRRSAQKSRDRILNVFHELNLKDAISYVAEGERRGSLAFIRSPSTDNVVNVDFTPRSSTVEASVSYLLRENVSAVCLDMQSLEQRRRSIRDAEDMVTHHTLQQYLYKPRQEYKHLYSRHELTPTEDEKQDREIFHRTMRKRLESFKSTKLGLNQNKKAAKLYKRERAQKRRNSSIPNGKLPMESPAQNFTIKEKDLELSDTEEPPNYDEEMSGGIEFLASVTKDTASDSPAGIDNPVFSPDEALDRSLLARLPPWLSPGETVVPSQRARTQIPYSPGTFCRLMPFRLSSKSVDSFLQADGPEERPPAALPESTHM
T1 sequence (Q99653 2-195 partner limits assumed): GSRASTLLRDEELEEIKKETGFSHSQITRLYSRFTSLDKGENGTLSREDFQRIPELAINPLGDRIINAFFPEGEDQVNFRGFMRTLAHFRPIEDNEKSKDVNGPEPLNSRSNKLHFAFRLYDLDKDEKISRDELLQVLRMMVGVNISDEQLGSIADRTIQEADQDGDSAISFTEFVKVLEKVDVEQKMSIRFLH
Assay: persistent inhibition of NHE3 in the cell-based assay of example 181 (4-chloro vs 4-cyano pairs)
Conditions: for IC50: cell-based assay of example 181, after washout, read-out: pIC50 (persistent) (converted); for Percent Inhibition: cell-based assay of example 181, persistent
Experimental: The following pairs of compounds differ only in the 4-position substituent (either chloro (X—Cl) or cyano (X—CN)):
The ability of compounds to inhibit human and rat NHE-3-mediated Na^+ dependent H^+ antiport after application and washout was measured using a modification of the pH sensitive dye method described above. PS120 fibroblasts stably expressing human NHE3 and NHERF2 were obtained from Mark Donowitz (Baltimore, Md.). Opossum kidney (OK) cells were obtained from the ATCC and propagated per their instructions. The rat NHE-3 gene was introduced into OK cells via electroporation, and cells were seeded into 96 well plates and grown overnight. Medium was aspirated from the wells, cells were washed once with NaCl-HEPES buffer (100 mM NaCl, 50 mM HEPES, 10 mM glucose, 5 mM KCl, 2 mM CaCl2, 1 mM MgCl2, pH 7.4), then overlayed with NaCl-HEPES buffer containing 0-30 μM test compound. After a 60 min incubation at room temperature, the test drug containing buffer was aspirated from the cells. Following aspiration, cells were washed once with NaCl-HEPES buffer without drug, then incubated for 30 min at 37° C. with NH4Cl-HEPES buffer (20 mM NH4Cl, 80 mM NaCl, 50 mM HEPES, 5 mM KCl, 2 mM CaCl2, 1 mM MgCl2, pH 7.4) containing 5 μM BCECF-AM. Cells were washed once with Ammonium free, Na^+-free HEPES (100 mM choline, 50 mM HEPES, 10 mM glucose, 5 mM KCl, 2 mM CaCl2, 1 mM MgCl2, pH 7.4) and incubated in the same buffer for 10 minutes at room temperature to lower intracellular pH. NHE-3-mediated recovery of neutral intracellular pH was initiated (10 min after compound washout) by addition of Na-HEPES buffer. […] Changes in intracellular pH were monitored using a FLIPR Tetra® (Molecular Devices, Sunnyvale, Calif.) by excitation at λex 439 to 505 nm, and measuring BCECF fluorescence at λem 538 nm. The initial rate of the fluorescence ratio change was used as a measure of NHE-mediated Na^+/H^+ activity, and reported as the change in fluorescence ratio per minute.

| IC50 [nM] | Percent Inhibition [%] | Structure (SMILES) |
| --- | --- | --- |
| 3.98 |  | O=C(NCCCCNC(=O)NCCOCCOCCNS(=O)(=O)c1ccc(O[C@H]2c3cc(Cl)cc(Cl)c3C[C@@H]2N2CCNCC2)c(F)c1)NCCOCCOCCNS(=O)(=O)c1ccc(O[C@H]2c3cc(Cl)cc(Cl)c3C[C@@H]2N2CCNCC2)c(F)c1 [D-Cl, 3-(2-{2-[2-(4-{[(1S,2S)-4,6-dichloro-2-(piperazin-1-yl)-2,3-dihydro-1H-inden-1-yl]oxy}-3-fluorobenzenesulfonamido)ethoxy]ethoxy}ethyl)-1-(4-{[(2-{2-[2-(4-{[(1S,2S)-4,6-dichloro-2-(piperazin-1-yl)-2,3-dihydro-1H-1-inden-1-yl]oxy}-3-fluorobenzenesulfonamido)ethoxy]ethoxy}ethyl)carbamoyl]amino}butyl)urea] |
| 6.31 | 82 | O=C(NCCCCNC(=O)NCCOCCOCCNS(=O)(=O)c1ccc(O[C@H]2c3cc(Cl)cc(Cl)c3C[C@@H]2N2CCNCC2)cc1)NCCOCCOCCNS(=O)(=O)c1ccc(O[C@H]2c3cc(Cl)cc(Cl)c3C[C@@H]2N2CCNCC2)cc1 [G-Cl, 3-(2-{2-[2-(4-{[(1S,2S)-4,6-dichloro-2-(piperazin-1-yl)-2,3-dihydro-1H-inden-1-yl]oxy}benzenesulfonamido)ethoxy]ethoxy}ethyl)-1-(4-{[(2-{2-[2-(4-{[(1S,2S)-4,6-dichloro-2-(piperazin-1-yl)-2,3-dihydro-1H-inden-1-yl]oxy}benzenesulfonamido)ethoxy]ethoxy}ethyl)carbamoyl]amino}butyl)urea] |
| 20 | 104 | Cc1cc(S(=O)(=O)NCCOCCOCCNC(=O)NCCCCNC(=O)NCCOCCOCCNS(=O)(=O)c2ccc(O[C@H]3c4cc(Cl)cc(Cl)c4C[C@@H]3N3CCNCC3)c(C)c2)ccc1O[C@H]1c2cc(Cl)cc(Cl)c2C[C@@H]1N1CCNCC1 [F-Cl, 3-(2-{2-[2-(4-{[(1S,2S)-4,6-dichloro-2-(piperazin-1-yl)-2,3-dihydro-1H-inden-1-yl]oxy}-3-methylbenzenesulfonamido)ethoxy]ethoxy}ethyl)-1-(4-{[(2-{2-[2-(4-{[(1S,2S)-4,6-dichloro-2-(piperazin-1-yl)-2,3-dihydro-1H-inden-1-yl]oxy}-3-methylbenzenesulfonamido)ethoxy]ethoxy}ethyl)carbamoyl]amino}butyl)urea] |

The next lines start with the molecule.

| Structure (SMILES) | IC50 [nM] | Percent Inhibition [%] |
| --- | --- | --- |
| O=C(NCCCCNC(=O)NCCOCCN1CC[C@H](NS(=O)(=O)c2ccc(O[C@H]3c4cc(Cl)cc(Cl)c4C[C@@H]3N3CCNCC3)c(F)c2)C1)NCCOCCN1CC[C@H](NS(=O)(=O)c2ccc(O[C@H]3c4cc(Cl)cc(Cl)c4C[C@@H]3N3CCNCC3)c(F)c2)C1 [C-Cl, 3-(2-{2-[(3S)-3-(4-{[(1S,2S)-4,6-dichloro-2-(piperazin-1-yl)-2,3-dihydro-1H-inden-1-yl]oxy}-3-fluorobenzenesulfonamido)pyrrolidin-1-yl]ethoxy}ethyl)-1-(4-{[(2-{2-[(3S)-3-(4-{[(1S,2S)-4,6-dichloro-2-(piperazin-1-yl)-2,3-dihydro-1H-inden-1-yl]oxy}-3-fluorobenzenesulfonamido)pyrrolidin-1-yl]ethoxy}ethyl)carbamoyl]amino}butyl)urea] | 3.98 | 90 |
| C[C@@H]1CN([C@H]2Cc3c(Cl)cc(Cl)cc3[C@@H]2Oc2ccc(S(=O)(=O)N[C@H]3CCN(C(=O)CNC(=O)CNC(=O)NCCCCNC(=O)NCC(=O)NCC(=O)N4CC[C@H](NS(=O)(=O)c5ccc(O[C@H]6c7cc(Cl)cc(Cl)c7C[C@@H]6N6CCN[C@H](C)C6)cc5)C4)C3)cc2)CCN1 [B-Cl, N-{2-[(3S)-3-(4-{[(1S,2S)-4,6-dichloro-2-[(3R)-3-methylpiperazin-1-yl]-2,3-dihydro-1H-inden-1-yl]oxy}benzenesulfonamido)pyrrolidin-1-yl]-2-oxoethyl}-2-({[4-({[({2-[(3S)-3-(4-{[(1S,2S)-4,6-dichloro-2-[(3R)-3-methylpiperazin-1-yl]-2,3-dihydro-1H-inden-1H-yl]oxy}benzenesulfonamido)pyrrolidin-1-yl]-2-oxoethyl}carbamoyl)methyl]carbamoyl}amino)butyl]carbamoyl}amino)acetamide] | 0.631 | 102 |
| C[C@@H]1CN([C@H]2Cc3c(C#N)cc(Cl)cc3[C@@H]2Oc2ccc(S(=O)(=O)N[C@H]3CCN(C(=O)CNC(=O)CNC(=O)NCCCCNC(=O)NCC(=O)NCC(=O)N4CC[C@H](NS(=O)(=O)c5ccc(O[C@H]6c7cc(Cl)cc(C#N)c7C[C@@H]6N6CCN[C@H](C)C6)cc5)C4)C3)cc2)CCN1 [B-CN, N-{2-[(3S)-3-(4-{[(1S,2S)-6-chloro-4-cyano-2-[(3R)-3-methylpiperazin-1-yl]-2,3-dihydro-1H-inden-1-yl]oxy}benzenesulfonamido)pyrrolidin-1-yl]-2-oxoethyl}-2-({[4-({[({2-[(3S)-3-(4-{[(1S,2S)-6-chloro-4-cyano-2-[(3R)-3-methylpiperazin-1-yl]-2,3-dihydro-1H-inden-1-yl]oxy}benzenesulfonamido)pyrrolidin-1-yl]-2-oxoethyl}carbamoyl)methyl]carbamoyl}amino)butyl]carbamoyl}amino)acetamide] | 0.126 | 110 |
| CN(C)[C@@H]1CCCN([C@H]2Cc3c(C#N)cc(Cl)cc3[C@@H]2Oc2ccc(S(=O)(=O)NCCOCCOCCNC(=O)NCCCCNC(=O)NCCOCCOCCNS(=O)(=O)c3ccc(O[C@H]4c5cc(Cl)cc(C#N)c5C[C@@H]4N4CCC[C@@H](N(C)C)C4)cc3)cc2)C1 [E-CN, 3-(2-{2-[2-(4-{[(1S,2S)-6-chloro-4-cyano-2-[(3R)-3-(dimethylamino)piperidin-1-yl]-2,3-dihydro-1H-inden-1-yl]oxy}benzenesulfonamido)ethoxy]ethoxy}ethyl)-1-(4-{[(2-{2-[2-(4-{[(1S,2S)-6-chloro-4-cyano-2-[(3R)-3-(dimethylamino)piperidin-1-yl]-2,3-dihydro-1H-inden-1-yl]oxy}benzenesulfonamido)ethoxy]ethoxy}ethyl)carbamoyl]amino}butyl)urea] | 1.26 | 36 |
| C[C@@H]1CN([C@H]2Cc3c(C#N)cc(Cl)cc3[C@@H]2Oc2ccc(S(=O)(=O)N[C@@H]3CCN(CCOCCNC(=O)NCCCCNC(=O)NCCOCCN4CC[C@@H](NS(=O)(=O)c5ccc(O[C@H]6c7cc(Cl)cc(C#N)c7C[C@@H]6N6CCN[C@H](C)C6)cc5)C4)C3)cc2)CCN1 [A-CN, 3-(2-{2-[(3R)-3-(4-{[(1S,2S)-6-chloro-4-cyano-2-[(3R)-3-methylpiperazin-1-yl]-2,3-dihydro-1H-inden-1-yl]oxy}benzenesulfonamido)pyrrolidin-1-yl]ethoxy}ethyl)-1-(4-{[(2-{2-[(3R)-3-(4-{[(1S,2S)-6-chloro-4-cyano-2-[(3R)-3-methylpiperazin-1-yl]-2,3-dihydro-1H-inden-1-yl]oxy}benzenesulfonamido)pyrrolidin-1-yl]ethoxy}ethyl)carbamoyl]amino}butyl)urea] | 0.631 | 101 |

From patent US11242337B2, “Compounds useful for treating gastrointestinal tract disorders” (Ardelyx, Inc., priority 2017, dated 2022)
